In PubChem BioAssay (NCI):
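Test compounds were applied to cells in 96-well plates for 48 hours at 5 doses. Here, GI50 denotes the concentration required for 50% inhibition of growth. TGI is the concentration that stops growth completely.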

Columns and labels:
Assay in all cases: NCI anticancer screen, dose series, 48 h
SNB-78 CNS = system: SNB-78 CNS
DMS 114 small cell lung = system: DMS 114 small cell lung
RXF-631 renal = system: RXF-631 renal
XF 498 CNS = system: XF 498 CNS
HOP-18 NSCLC = system: HOP-18 NSCLC
KM20L2 colon = system: KM20L2 colon
LXFL 529 NSCLC = system: LXFL 529 NSCLC
MDA-N = system: MDA-N
M19-MEL melanoma = system: M19-MEL melanoma

Compound | TGI (SNB-78 CNS) [µM] | TGI (DMS 114 small cell lung) [µM] | TGI (RXF-631 renal) [µM] | TGI (XF 498 CNS) [µM] | TGI (HOP-18 NSCLC) [µM] | TGI (KM20L2 colon) [µM] | TGI (LXFL 529 NSCLC) [µM] | TGI (M19-MEL melanoma) [µM] | also measured
CC(=O)OC1CCn2nnc(COC(=O)NC(C)C)c21 (stereo not given) | > 100 | > 100 | > 100 | > 100 | > 100 | > 100 | > 100 |  | 
CCOC(=O)CC1(O)C=CC(=O)C=C1 |  |  |  |  |  |  |  |  | GI50 (MDA-N): 2.83 µg/mL; TGI (MDA-N): 7.25 µg/mL
CC(=O)O[C@@H]1CO[C@H]2O[C@H]3[C@@H](C(C=O)=C[C@H](O)[C@@H]4C5=C(C(C)C)CC[C@]5(C)CC[C@@]34C)[C@@]2(O)C1=O |  |  |  |  |  |  |  |  | TGI (MDA-N): 0.415 µM
CCCNCc1nc2ccc(Br)cc2c(=O)n1CCC | 40.6 | 22.9 | 19 | 30.9 | 32.1 | 34.3 | 25.1 | 26.1 | 
CO[C@@H]1[C@@H](OC2OC(C)C(OC3CC(C)(O)C(OC(=O)CC(C)C)C(C)O3)C(N(C)C)C2O)[C@@H](CC=O)C[C@@H](C)C(=O)/C=C/C2O[C@H]2C[C@@H](C)OC(=O)C[C@H]1OC(C)=O (stereo not given in full) |  |  |  |  |  |  |  |  | TGI (MDA-N): 29.8 µM
Cc1c(C(=O)/C=C/c2ccc(Cl)cc2)[n+](=O)c2ccccc2n1[O-] | > 100 | 15.1 | > 100 |  | 57.7 | 21.4 | 22.5 | 30 | 
O=C(CCC(=O)Nc1ccc(Cl)cc1)CC(=O)c1ccc(F)cc1 | > 100 |  |  | > 100 |  | > 100 | > 100 |  | 
CC(=O)N1CC2Nc3ccccc3C2CC1CO (stereo not given) | > 100 | > 100 | > 100 | > 100 |  | > 100 | > 100 | > 100 | 
C(=C\c1csnn1)/c1cccnc1 | > 100 | > 100 | > 100 | > 100 | > 100 | > 100 | > 100 | > 100 | 
O=c1ccccc2cccc(O)c12 | > 100 | > 100 | > 100 | > 100 | > 100 | > 100 | > 100 | > 100 | 
COc1ccc(C(c2ccc(C(C)C)cc(=O)c2O)c2c(O)cc3oc(-c4ccccc4)cc(=O)c3c2O)cc1 (stereo not given) | > 100 |  | > 100 | 37 | 80.4 | > 100 | 71.6 | 26.7 | 
O=C1Nc2ccccc2C1Cc1ccccc1 (stereo not given) |  |  |  |  |  |  |  |  | TGI (MDA-N): > 100 µM
O=C1CCCC/C1=C/C=C/c1ccccc1 |  |  | > 100 | > 100 | > 100 | > 100 | > 100 | > 100 | 
O=c1/c(=C/c2ccc(Cl)cc2Cl)sc2nc3ccccc3n12 | > 100 | > 100 | > 100 | > 100 | > 100 | > 100 | > 100 | > 100 | 
CCCCCCCCCCCCCCCC(=O)OCC(O)C1OC(=O)C(O)=C1O (stereo not given) |  |  |  |  |  |  |  |  | TGI (MDA-N): 94.6 µM
CCOC(=O)/N=C(\N)SCc1ccccc1 | > 100 | > 100 | > 100 | > 100 | > 100 | > 100 | > 100 | > 100 | 
Cc1cc(NS(=O)(=O)c2ccc(NC(=O)c3cccc4c(N)c5ccccc5nc34)cc2)no1 | 71.1 | 45.6 | 38.7 | 55.5 |  | > 100 | > 100 | 42.1 | 
O=c1cc(Cl)nc[nH]1 | > 100 | > 100 | > 100 |  | > 100 | > 100 | > 100 | > 100 | 
CCC[CH2][Sn]([CH2]CCC)([O]C(=O)c1cccc(F)c1)[O]C(=O)c1cccc(F)c1 | 2.27 | 1.63 | 0.486 | 2.04 |  | 2.91 | 0.664 | 1.93 | GI50 (SNB-78 CNS): 0.702 µM; GI50 (DMS 114 small cell lung): 0.376 µM; GI50 (M19-MEL melanoma): 0.575 µM; GI50 (RXF-631 renal): 0.209 µM; GI50 (XF 498 CNS): 0.559 µM; GI50 (KM20L2 colon): 1.47 µM; GI50 (LXFL 529 NSCLC): 0.228 µM
CCc1c2c(nc3cc4c(cc13)OCO4)-c1cc3c(c(=O)n1C2)COC(=O)[C@@]3(CC)OC(=O)CN |  |  |  |  |  |  |  |  | GI50 (MDA-N): < 0.01 µM; TGI (MDA-N): 2.18 µM
CC1(O)CC2C(CC1SCCO)C2(C)C (stereo not given) | > 100 | > 100 |  | > 100 | > 100 |  | > 100 | > 100 | 
